According to patent publication US20190008850A1, “METHOD OF TREATING SCHIZOPHRENIA” (priority 2015, published 2019):
Structures can show the parent of a compound that is named as a salt.

System: individuals with schizophrenia
Assay: Therapeutic administration of dextromethorphan in schizophrenia (summary statement)
Format: in vivo, human

For `COc1ccc2c(c1)[C@]13CCCC[C@@H]1[C@H](C2)N(C)CC3` [dextromethorphan, morphinan, 3-methoxy-17-methyl-, (9a, 13a, 14a)-hydrobromide monohydrate], the progression of schizophrenia (administered at first break) was “mitigated the progression of schizophrenia, and in some cases, reversed the disorder”, the “positive symptoms, in particular expressions of hostility” value (in vivo) was “appears to also reduce some positive symptoms” and the “frequency and intensity of negative symptoms” value (individuals with established schizophrenia diagnoses) was “significantly reduced”. For the same molecule, the “negative symptoms of schizophrenia” value (therapeutic administration) was “substantially reduces”.
